Results taken from patent publication US11981661B2, “Heterocyclic compounds” (Hoffmann-La Roche Inc., priority 2020, dated 2024).

Target: T1, MAGL (Homo sapiens, UniProt Q99685)
T1 sequence (Q99685 1-303): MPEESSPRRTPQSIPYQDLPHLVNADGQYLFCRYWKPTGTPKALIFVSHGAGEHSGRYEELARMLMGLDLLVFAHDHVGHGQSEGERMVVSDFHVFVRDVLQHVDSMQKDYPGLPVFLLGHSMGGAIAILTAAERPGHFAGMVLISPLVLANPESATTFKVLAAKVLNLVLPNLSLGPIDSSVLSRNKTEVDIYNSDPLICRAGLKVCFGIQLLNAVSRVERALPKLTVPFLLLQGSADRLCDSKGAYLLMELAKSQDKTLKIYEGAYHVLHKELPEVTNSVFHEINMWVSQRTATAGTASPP
Assay: 2-AG assay (MAGL inhibitory activity, hydrolysis of 2-arachidonoylglycerol followed by mass spectrometry)
Format: biochemical
Conditions: 50 pM MAGL, 8 μM 2-arachidonoylglycerol, 15 min preincubation, 30 min incubation at RT, concentration range 12.5 μM to 0.8 pM
How it was run: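 Activity derived from the arachidonic acid/d8-arachidonic acid MS intensity ratio after acetonitrile quench. Reaction: 8 μM 2-AG substrate with 50 pM MAGL, 30 min at RT, following 15 min RT compound preincubation; buffer 50 mM TRIS, 1 mM EDTA, 0.01% Tween; final compound range 12.5 μM to 0.8 pM.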

| SMILES | IC50 [nM] |
| --- | --- |
| CS(=O)(=O)c1ccc(CN2CCC3(CC2)CN(C(=O)CC[C@@H]2COC(=O)N2)C3)cc1 [Example 192, (4R)-4-[3-[7-[(4-Methyl-sulfonylphenyl)methyl]-2,7-diazaspiro[3.5]nonan-2-yl]-3-oxo-propyl] oxazolidin-2-one] | 1220 |
| O=C1N[C@H](CCC(=O)N2CC(c3ccc(Oc4ccc(F)cc4)cc3)C2)CO1 [Example 30, (4R)-4-[3-[3-[4-(4-Fluorophenoxy)phenyl]azetidin-1-yl]-3-oxo-propyl]oxazolidin-2-one] | 1 |
| O=C1N[C@@H](COC(=O)N2CC3(CC(Cc4ccc(F)cc4F)C3)C2)CO1 [Example 59, [(4R)-2-Oxooxazolidin-4-yl]methyl 6-[(2,4-difluorophenyl)methyl]-2-azaspiro[3.3]heptane-2-carboxylate] | 2 |
| O=C(C(F)CCc1cnn[nH]1)N1CC(c2ccc(C3(C(F)(F)F)CC3)cc2)C1 (centres unmarked) [Example 70, 2-Fluoro-4-(1H-triazol-5-yl)-1-[3-[4-[1-(trifluoromethyl)cyclopropyl]phenyl]azetidin-1-yl]butan-1-one] | 62 |
| CN(Cc1ccc(C(F)(F)F)cc1F)C1CN(C(=O)CC[C@@H]2COC(=O)N2)C1 [Example 162, (4R)-4-[3-[3-[[2-Fluoro-4-(trifluoromethyl)phenyl]methyl-methyl-amino]azetidin-1-yl]-3-oxo-propyl] oxazolidin-2-one] | 108 |
| O=C1CCC(CCC(=O)N2CC(c3ccc(C4(C(F)(F)F)CC4)cc3)C2)N1 (single isomer, unassigned; (+)) [Example 6, (+)-5-[3-Oxo-3-[3-[4-[1-(trifluoromethyl)cyclopropyl]phenyl]azetidin-1-yl]propyl]pyrrolidin-2-one] | 3 |
| O=C1N[C@H](CCC(=O)N2CC(c3ccc(C4(C(F)(F)F)CC4)nc3)C2)CO1 [Example 102, (4R)-4-[3-Oxo-3-[3-[6-[1-(trifluoro-methyl)cyclopropyl]-3-pyridyl]azetidin-1-yl]propyl]oxazolidin-2-one] | 420 |
| O=C1N[C@H](CCC(=O)N2CC(c3cnc(N4CCC(C(F)(F)F)C4)nc3)C2)CO1 (single isomer, unassigned) [Example 208, (−)- or (+)-(4R)-4-[3-Oxo-3-[3-[2-[3-(trifluoromethyl)pyrrolidin-1-yl]pyrimidin-5-yl]azetidin-1-yl]propyl]oxazolidin-2-one] | 138 |
| N#CCS(=O)(=O)c1ccc(C2CN(C(=O)CC[C@@H]3COC(=O)N3)C2)cc1 [Example 75, 2-[4-[1-[3-[(4R)-2-Oxooxazolidin-4-yl]propanoyl]azetidin-3-yl]phenyl]sulfonyl-acetonitrile] | 57 |
| CC(CCc1cnn[nH]1)C(=O)N1CC(c2ccc(C3(C(F)(F)F)CC3)cc2)C1 (centres unmarked) [Example 68, 2-Methyl-4-(1H-triazol-5-yl)-1-[3-[4-[1-(trifluoromethyl)cyclopropyl]phenyl]azetidin-1-yl]butan-1-one] | 59 |
| O=C1N[C@H](CCC(=O)N2CC3(CC(Oc4ccc(F)cc4Cl)C3)C2)CO1 [Example 29, (4R)-4-[3-[6-(2-Chloro-4-fluoro-phenoxy)-2-azaspiro[3.3]heptan-2-yl]-3-oxo-propyl]oxazolidin-2-one] | 6 |
| O=C1N[C@H](CCC(=O)N2CC(c3ccc(N4CCC(O)(C(F)(F)F)C4)nc3)C2)CO1 (single isomer, unassigned) [Example 204, (−)- or (+)-(4R)-4-[3-[3-[6-[3-Hydroxy-3-(trifluoromethyl)pyrrolidin-1-yl]-3-pyridyl]azetidin-1-yl]-3-oxo-propyl]oxazolidin-2-one] | 98 |
| O=C1N[C@H](CCC(=O)N2CC3(CC(Cc4ncc(C(F)(F)F)cn4)C3)C2)CO1 [Example 183, (4R)-4-[3-Oxo-3-[6-[[5-(trifluoro-methyl)pyrimidin-2-yl]methyl]-2-azaspiro[3.3]heptan-2-yl]propyl] oxazolidin-2-one] | 84 |

Other lines, results leading:

| IC50 [nM] | SMILES |
| --- | --- |
| 12 | O=C1N[C@H](CCC(=O)N2CC(c3cnc(C4CC5(CCC5)C4)cn3)C2)CO1 [Example 164, (4R)-4-[3-Oxo-3-[3-(5-spiro[3.3]heptan-2-ylpyrazin-2-yl)azetidin-1-yl]propyl] oxazolidin-2-one] |
| 0.18 | O=C1N[C@H](CCC(=O)N2CC(c3ccc(-c4ccc(Cl)cc4Cl)cn3)C2)CO1 [Example 114, (4R)-4-[3-[3-[5-(2,4-Dichloro-phenyl)-2-pyridyl]azetidin-1-yl]-3-oxo-propyl]oxazolidin-2-one] |
| 25 | CS(=O)(=O)c1cc(F)ccc1CC1CC2(C1)CN(C(=O)CC[C@@H]1COC(=O)N1)C2 [Example 157, (4R)-4-[3-[6-[(4-Fluoro-2-methylsulfonyl-phenyl)methyl]-2-azaspiro[3.3]heptan-2-yl]-3-oxo-propyl]oxazolidin-2-one] |
| 36 | O=C1N[C@H](COC(=O)N2CC(OCc3ccc(C(F)(F)F)cc3F)C2)CO1 [Example 54, [(4S)-2-Oxooxazolidin-4-yl]methyl 3-[[2-fluoro-4-(trifluoromethyl)phenyl]methoxy] azetidine-1-carboxylate] |
| 430 | O=C(CCc1ccn[nH]1)N1CC(OCc2ccc(C(F)(F)F)cc2F)C1 [Example 47, 1-[3-[[2-Fluoro-4-(trifluoromethyl)phenyl]methoxy]azetidin-1-yl]-3-(1H-pyrazol-5-yl)propan-1-one] |
| 2250 | O=C1NCC(CCC(=O)N2CC3(CC(Cc4ccc(C(F)(F)F)nc4)C3)C2)N1 (centres unmarked) [Example 213, 4-[3-Oxo-3-[6-[[6-(trifluoromethyl)-3-pyridyl]methyl]-2-azaspiro[3.3]heptan-2-yl]propyl]imidazolidin-2-one] |
| 4 | O=C1N[C@H](CCC(=O)N2CC(OCc3ccc(S(F)(F)(F)(F)F)cc3F)C2)CO1 [Example 26, (4R)-4-[3-[3-[[2-Fluoro-4-(pentafluoro-λ^6-sulfanyl)phenyl]methoxy]azetidin-1-yl]-3-oxo-propyl]oxazolidin-2-one] |
| 3370 | CC(C)(C)CS(=O)(=O)N1CC2(CN(C(=O)CC[C@@H]3COC(=O)N3)C2)C1 [Example 98, (4R)-4-[3-[2-(2,2-Dimethylpropyl-sulfonyl)-2,6-diazaspiro[3.3]heptan-6-yl]-3-oxo-propyl]oxazolidin-2-one] |
| 26 | O=C1N[C@H](COC(=O)N2CC(c3ccc(N4CCC(C(F)(F)F)C4)nc3)C2)CO1 (stereo partly drawn) [Example 62, [(4S)-2-Oxooxazolidin-4-yl]methyl 3-[6-[3-(trifluoromethyl)pyrrolidin-1-yl]-3-pyridyl]azetidine-1-carboxylate] |
| 20 | O=C1N[C@H](CCC(=O)N2CC(c3ccc(Oc4cnc(C(F)(F)F)cn4)cc3)C2)CO1 [Example 174, (4R)-4-[3-Oxo-3-[3-[4-[5-(trifluoromethyl)pyrazin-2-yl]oxyphenyl]azetidin-1-yl]propyl]oxazolidin-2-one] |
| 70 | CS(=O)(=O)c1ccc(-c2cnc(C3CN(C(=O)CC[C@@H]4COC(=O)N4)C3)cn2)c(Cl)c1 [Example 110, (4R)-4-[3-[3-[5-(2-Chloro-4-methylsulfonyl-phenyl)pyrazin-2-yl]azetidin-1-yl]-3-oxo-propyl]oxazolidin-2-one] |
| 10 | O=C1N[C@H](CCC(=O)N2CC(c3ccc(Oc4ccccc4Cl)nc3)C2)CO1 [Example 28, (4R)-4-[3-[3-[6-(2-Chlorophenoxy)-3-pyridyl]azetidin-1-yl]-3-oxo-propyl]oxazolidin-2-one] |
| 59 | CS(=O)(=O)c1cc(F)cc(CC2CC3(C2)CN(C(=O)CC[C@@H]2COC(=O)N2)C3)c1 [Example 184, (4R)-4-[3-[6-[(3-Fluoro-5-methylsulfonyl-phenyl)methyl]-2-azaspiro[3.3]heptan-2-yl]-3-oxo-propyl]oxazolidin-2-one] |
| 1170 | CC(C)(C)S(=O)(=O)c1ccc(C2CN(C(=O)CC[C@@H]3COC(=O)N3)C2)cn1 [Example 111, (4R)-4-[3-[3-(6-tert-Butylsulfonyl-3-pyridyl)azetidin-1-yl]-3-oxo-propyl]oxazolidin-2-one] |
| 2020 | O=C1N[C@H](CCC(=O)N2CC(c3noc(-c4ccc(C(F)(F)F)nc4)n3)C2)CO1 [Example 168, (4R)-4-[3-Oxo-3-[3-[5-[6-(trifluoromethyl)-3-pyridyl]-1,2,4-oxadiazol-3-yl]azetidin-1-yl]propyl]oxazolidin-2-one] |
| 95 | O=C1N[C@H](CCC(=O)N2CC3(CC(NS(=O)(=O)c4cccc(C(F)(F)F)c4)C3)C2)CO1 [Example 154, N-[2-[3-[(4R)-2-Oxooxazolidin-4-yl]propanoyl]-2-azaspiro[3.3]heptan-6-yl]-3-(trifluoromethyl) benzene-sulfonamide] |
| 14 | O=C1N[C@H](CCC(=O)N2CC(c3ccc(N4CCC(C(F)(F)F)C4)nc3)C2)CO1 (stereo partly drawn) [Example 34, (4R)-4-[3-Oxo-3-[3-[6-[3-(trifluoromethyl)pyrrolidin-1-yl]-3-pyridyl]azetidin-1-yl]propyl]oxazolidin-2-one] |
| 33 | O=C1N[C@H](CCC(=O)N2CC(c3ccc(-c4cnc(C(F)(F)F)cn4)cc3)C2)CO1 [Example 119, (4R)-4-[3-Oxo-3-[3-[4-[5-(trifluoromethyl)pyrazin-2-yl]phenyl]azetidin-1-yl]propyl] oxazolidin-2-one] |
| ≥ 12500 | CC1(CCC(=O)N2CC(c3ccc(C4(C(F)(F)F)CC4)cc3)C2)CCC(=O)N1 (single isomer, unassigned) [Example 15, (−)- or (+)-5-Methyl-5-[3-oxo-3-[3-[4-[1-(trifluoromethyl)cyclopropyl]phenyl]azetidin-1-yl]propyl]pyrrolidin-2-one] |
